Measured values published in PMC5481817, “Developing Targeted Hybrid Imaging Probes by Chelator Scaffolding” (Bioconjugate chemistry, 2017).
Like-named read-outs stand apart in the source and are kept apart here. Blank lines part the entries; values can stand above or below the molecule they belong to. *1 amine or outer side, *2 acyl side, *3 side chain or, on linkers, in order; H or OH if unused. Where a SMILES comes first, the peptide text is derived from it. Bridges are numbered along the chain shown (N, C = ends). Roman numbers before positions name the chains, in order. [ ]: non-standard residue; d: D form. X2 = CC1=CC(=O)N(O)CCCC(NC(=O)CCN2C(=O)CC([*:2])C2=O)C(=O)OCCC(C)=CC(=O)N(O)CCCC(NC(=O)CCN2C(=O)CC([*:1])C2=O)C(=O)OCCC(C)=CC(=O)N(O)CCCC(NC(=O)CCCCC[N+]2=C(C=CC3=CC(=CC=C4N(C)c5ccc(S(=O)(=O)O)cc5C4(C)C)CCC3)C(C)(C)c3cc(S(=O)(=O)[O-])ccc32)C(=O)OCC1; Mpa = O=C(O)CCS

What was measured:
[1] = system: A431-CCK2R cells; assay: Fluorescence measured cell specificity, A431-CCK2R; assay type: cell-based, human; conditions: 2 h incubation, 3 nM ligand
Method: (§1) Fluorescence assays were conducted similarly to the internalization assays except for using lower cell numbers and determining only the cellbound fraction. Briefly, A431-CCK2R, M21, and M21-L cells were diluted in corresponding media to a density of 2 × 10^6 cells/mL. Aliquots of 0.5 mL were transferred to Eppendorf tubes—six technical replicates for A431-CCK2R unblocked and blocked and M21/M21-L, respectively—and treated in the same manner as described above. The nonradiolabeled particular ligand was added to a final concentration of 3 nM and the tubes were kept in an incubator (Incubator hood TH15 and Compact shaker KS-15 control, Edmund Bühler GmbH, Hechingen, Germany) at 37 °C for 2 h under vigorously shaking (420/min). After centrifugation (2 min, 5000 rpm) washing steps were performed as mentioned before. […] Fluorescence intensity was measured with Tecan Infinite 200 PRO series multiplate reader (Tecan Trading AG, Switzerland) by using Tecan Icontrol 1.1 software. Parameters were set as follows: Fluorescence Top reading; excitation/emission wavelength 740/790 nm; excitation bandwidth 9 nm; emission bandwidth 20 nm; gain optimal; number of flashes 25; integration time 25 μs. Results were calculated and expressed as percentage of cell-bound fluorescence in relation to the standards sample.

[2] = system: A431-CCK2R/A431-mock tumor xenograft-bearing BALB/c nude mice; assay: Near-infrared fluorescence imaging, A431-CCK2R/A431-mock xenografts; assay type: in vivo, mouse
Method: (§2) All animal experiments were conducted in accordance with regulations and guidelines of the Czech Animal Protection Act (No. 246/1992), and with the approval of the Czech Ministry of Education, Youth, and Sports (MSMT-22421/2013–12), and the institutional Animal Welfare Committee of the Faculty of Medicine and Dentistry of Palacky University in Olomouc. The studies were performed using female 8–10-week-old athymic BALB/c nude mice (Envigo, Horst, The Netherlands). […]
(§3) Tumor xenografts were established near the front shoulder of mice by subcutaneous injection of 5 × 10^6 cells (U-87 MG) or 2 × 10^6 cells (A431-CCK2R) and the same amount of A431-mock cells as a control in 200 μL appropriate medium and Matrigel (1:1). […] Tumors, blood, muscle tissue, and organs were extracted, weighed, and activity uptake of the samples was measured in the gamma counter. Results were expressed as percentage of injected dose per gram tissue (% ID/g). […] After reconstruction, acquired data was viewed and analyzed with PMOD software (PMOD Technologies Ltd., Zurich, Switzerland). […] Near-infrared in vivo fluorescence imaging was performed with an In-Vivo MS FX PRO small animal imaging system (Bruker Biospin Corporation, Woodbridge, CT, USA). […] An appropriate filter set (excitation = 730 nm and emission = 790 nm) was used for acquiring the Sulfo-Cy7-FSC-peptide - fluorescence in vivo. […]

[3] = biological target: T1, human CCK-2 receptor (Homo sapiens, UniProt P32239); assay: Whole cell receptor binding affinity (displacement of [125I]-[Leu15]-Gastrin I) on A431-CCK2R cells
T1 construct: expressed in transfected cells; host or cells: A431 human squamous carcinoma cells (gift from L. Aloj)
T1 sequence (P32239 1-447): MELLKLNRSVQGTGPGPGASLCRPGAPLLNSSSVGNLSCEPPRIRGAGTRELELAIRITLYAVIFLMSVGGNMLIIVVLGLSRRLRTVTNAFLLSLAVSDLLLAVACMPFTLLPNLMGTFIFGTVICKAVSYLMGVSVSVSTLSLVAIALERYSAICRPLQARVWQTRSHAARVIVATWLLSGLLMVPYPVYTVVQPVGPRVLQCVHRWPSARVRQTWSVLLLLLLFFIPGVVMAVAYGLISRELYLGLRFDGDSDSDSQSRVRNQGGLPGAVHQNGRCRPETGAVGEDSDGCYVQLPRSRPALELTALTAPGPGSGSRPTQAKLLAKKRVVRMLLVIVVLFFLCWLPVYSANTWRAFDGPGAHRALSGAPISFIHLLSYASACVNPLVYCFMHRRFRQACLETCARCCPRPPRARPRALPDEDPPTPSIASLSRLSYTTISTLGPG
Method: (§4) Receptor binding affinities were evaluated via a displacement cell-binding assay for metal free as well as metal bound ([^natGa]) conjugates. Binding of nonradioactive gallium was performed in analogy to the radiolabeling procedure but instead of the generator eluate a 100-fold molar excess of gallium bromide (GaBr3) dissolved in 100 μL 0.1 N HCl was used. Cells were prepared as described below and incubated with increasing concentrations [0.001–1000 nM] of competitor in triplicate. After addition of corresponding iodinated radioligand the 96-well MulitScreen Filter Plates HTS (1 μm glass fiber filter, Merck Millipore, Darmstadt, Germany) were incubated for 1 or 2 h at RT under shaking conditions (Compact shaker KS-15 control, 200/min) and after a washing step the remaining activity on the filter was measured in the γ-counter. The receptor affinity of DOTA-minigastrin11 as well as c(RGDyV) were determined under the corresponding conditions as a reference. IC50 values were calculated by using nonlinear curve fitting with following formula NS+SB/(1+x/IC50) on Origin 6.1 software (Northampton, MA, USA). A detailed description regarding iodination can be found in the Supporting Information.
A431-CCK2R cells were diluted in 50 mM HEPES buffer (pH 7.3) containing 5 mM MgCl2 and 0.3% BSA to a density of 5 × 10^6 cells/mL. 96-well plates were washed with 200 μL of 10 mM TRIS buffered saline (pH 7.3) and 100 μL of cell suspension were added to each well. Hereafter 50 μL of competitor solution {([^natGa])Sulfo-Cy7-FSC-MG or DOTA-minigastrin^11 diluted in 20 mM HEPES; 10 mM MgCl2 and 0.1% BSA} of each concentration were added and left for 10 min at RT. After incubation with 50 μL of radioligand (human [^125I]-[Leu^15]-Gastrin I 4.5 × 10^4 cpm) for 1 h the plate was washed twice with 200 μL TRIS-buffer/well.

[4] = biological target: T2, integrin αvβ3 (Homo sapiens, UniProt P05106+P06756); assay: Integrin binding affinity assay (displacement of [125I]-c(RGDyV)) on M21 cells; conditions: metal-free conjugate or reference peptide, radioligand [125I]-c(RGDyV), 2 h RT
T2 construct: endogenous in cells; host or cells: human melanoma M21 cells (gift from D. A. Cheresh)
Method: as §4
Integrin binding affinity assay was adapted from Yun Wu et al.[31] Briefly, M21 cells were washed two times with phosphate buffered saline followed by suspension in binding buffer (=20 mM TRIS pH 7.4 + 150 mM NaCl + 2 mM CaCl2 + 1 mM MgCl2 + 1 mM MnCl2 0.1% BSA). 96-well plates were washed with 200 μL of 20 mM TRIS-buffer and seeded with 1 × 10^6 cells/well (10^7 cells/mL). After 10 min of incubation in the presence of the competitor {([^natGa])Sulfo-Cy7-FSC-RGD or c(RGDyV) diluted in binding buffer)} volume was adjusted to 200 μL/well by adding 50 μL of radioligand ([^125I]-c(RGDyV), 4.5 × 10^4 cpm) and the plate was left for 2 h at RT. Finally the supernatant was removed by vacuum and each well was washed three times with 200 μL ice-cold binding buffer.

[5] = system: M21-L (αvβ3-negative) cells; assay: Fluorescence measured cell specificity, M21-L; assay type: cell-based, human; conditions: 2 h incubation, 3 nM ligand
Method: as §1

[6] = system: mice bearing U-87MG tumor xenografts; assay: Near-infrared fluorescence imaging, U-87MG xenografts; assay type: in vivo, mouse
Method: as §2, §3

[7] = system: M21 (αvβ3-positive) cells; assay: Fluorescence measured cell specificity, M21; assay type: cell-based, human; conditions: 2 h incubation, 3 nM ligand
Method: as §1

[8] = biological target: T1, human CCK-2 receptor; set-up: method as in unpublished data; conditions: comparison value, slight variances in experimental setting; ref unpublished data; cited from earlier work

T2 sequence (P06756 31-889 limits assumed): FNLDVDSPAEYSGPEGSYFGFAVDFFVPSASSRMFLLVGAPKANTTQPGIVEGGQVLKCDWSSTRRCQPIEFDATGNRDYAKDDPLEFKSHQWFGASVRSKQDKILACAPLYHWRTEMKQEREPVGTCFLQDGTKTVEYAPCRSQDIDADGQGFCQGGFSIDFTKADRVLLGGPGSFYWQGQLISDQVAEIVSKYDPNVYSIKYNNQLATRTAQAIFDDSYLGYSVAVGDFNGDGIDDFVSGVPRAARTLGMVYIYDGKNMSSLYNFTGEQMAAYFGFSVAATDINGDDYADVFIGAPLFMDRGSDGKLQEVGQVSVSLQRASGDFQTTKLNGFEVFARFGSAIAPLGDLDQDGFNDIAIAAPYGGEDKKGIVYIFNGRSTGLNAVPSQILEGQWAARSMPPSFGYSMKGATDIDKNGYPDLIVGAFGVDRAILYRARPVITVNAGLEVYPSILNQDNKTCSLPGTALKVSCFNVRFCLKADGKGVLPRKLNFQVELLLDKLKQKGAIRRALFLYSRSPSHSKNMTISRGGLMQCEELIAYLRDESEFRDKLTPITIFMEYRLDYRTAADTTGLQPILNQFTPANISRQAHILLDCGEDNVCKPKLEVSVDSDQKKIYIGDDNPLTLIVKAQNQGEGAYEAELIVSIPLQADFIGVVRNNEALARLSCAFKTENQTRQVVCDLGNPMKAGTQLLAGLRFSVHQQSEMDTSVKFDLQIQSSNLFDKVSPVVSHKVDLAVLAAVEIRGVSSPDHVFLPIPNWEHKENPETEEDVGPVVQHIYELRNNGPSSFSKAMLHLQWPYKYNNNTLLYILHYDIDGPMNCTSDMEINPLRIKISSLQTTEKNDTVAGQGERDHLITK
T2 sequence (P06756 891-1048 partner limits assumed): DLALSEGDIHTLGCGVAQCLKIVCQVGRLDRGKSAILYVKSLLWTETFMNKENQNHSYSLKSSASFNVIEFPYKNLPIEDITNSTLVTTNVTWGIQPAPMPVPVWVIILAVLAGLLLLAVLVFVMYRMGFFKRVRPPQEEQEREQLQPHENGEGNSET
T2 sequence (P05106 27-788): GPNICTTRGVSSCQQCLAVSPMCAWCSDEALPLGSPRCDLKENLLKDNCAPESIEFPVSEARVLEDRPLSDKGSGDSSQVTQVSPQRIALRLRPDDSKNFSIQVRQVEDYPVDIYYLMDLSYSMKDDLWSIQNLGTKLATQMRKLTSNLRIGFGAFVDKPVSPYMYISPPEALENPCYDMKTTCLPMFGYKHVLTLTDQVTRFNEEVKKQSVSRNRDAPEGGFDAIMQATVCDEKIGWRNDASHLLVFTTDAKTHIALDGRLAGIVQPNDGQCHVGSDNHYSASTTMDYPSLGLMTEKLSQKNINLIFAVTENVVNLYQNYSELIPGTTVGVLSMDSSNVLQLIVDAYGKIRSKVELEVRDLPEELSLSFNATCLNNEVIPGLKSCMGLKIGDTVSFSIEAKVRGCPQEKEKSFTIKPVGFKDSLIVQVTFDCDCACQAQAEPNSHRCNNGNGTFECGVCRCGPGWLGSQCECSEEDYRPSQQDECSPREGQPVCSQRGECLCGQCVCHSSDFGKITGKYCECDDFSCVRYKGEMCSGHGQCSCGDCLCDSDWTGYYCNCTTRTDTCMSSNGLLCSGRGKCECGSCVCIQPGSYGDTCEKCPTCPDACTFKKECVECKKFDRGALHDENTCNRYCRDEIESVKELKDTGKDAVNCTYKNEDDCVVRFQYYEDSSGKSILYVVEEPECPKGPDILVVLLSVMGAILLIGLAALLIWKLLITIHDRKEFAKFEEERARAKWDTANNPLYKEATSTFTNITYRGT

IC50 ([3]; metal-bound ([natGa]) complexed form): 2.68 ± 0.53 nM
IC50 ([3]; metal-free (uncomplexed) conjugate or reference peptide, radioligand [125I]-[Leu15]-Gastrin I, 1 h RT): 2.81 ± 0.66 nM
Molecule: CSCC[C@H](NC(=O)[C@H](Cc1c[nH]c2ccccc12)NC(=O)CNC(=O)[C@H](Cc1ccc(O)cc1)NC(=O)[C@H](C)NC(=O)[C@@H](CCC(=O)O)NC(=O)CCSC1CC(=O)N(CCC(=O)NC2CCCN(O)C(=O)C=C(C)CCOC(=O)C(NC(=O)CCN3C(=O)CC(SCCC(=O)N[C@H](CCC(=O)O)C(=O)N[C@@H](C)C(=O)N[C@@H](Cc4ccc(O)cc4)C(=O)NCC(=O)N[C@@H](Cc4c[nH]c5ccccc45)C(=O)N[C@@H](CCSC)C(=O)N[C@@H](CC(=O)O)C(=O)N[C@@H](Cc4ccccc4)C(N)=O)C3=O)CCCN(O)C(=O)C=C(C)CCOC(=O)C(NC(=O)CCCCC[N+]3=C(C=CC4=CC(=CC=C5N(C)c6ccc(S(=O)(=O)O)cc6C5(C)C)CCC4)C(C)(C)c4cc(S(=O)(=O)[O-])ccc43)CCCN(O)C(=O)C=C(C)CCOC2=O)C1=O)C(=O)N[C@@H](CC(=O)O)C(=O)N[C@@H](Cc1ccccc1)C(N)=O (stereo partly drawn) [Sulfo-Cy7-FSC-MG, Sulfo-Cyanine7-FSC-(mal-MG11)2] (I: [Mpa][dE]AYGWMDF-NH2 / II: [Mpa][dE]AYGWMDF-NH2; linker I:1-II:1 via X2)
Fluorescence-determined cell uptake ([1]; blocked A431-CCK2R cells): 1.65 ± 0.47%
Fluorescence-determined cell uptake ([1]; nonblocked A431-CCK2R cells): 10.78 ± 1.04%
optical imaging tumor contrast ([2]; 2 h after injection): moderate contrast
optical imaging tumor contrast ([2]; 5 h up to 3 days p.i.): excellent contrast

IC50 [4]: 1.13 ± 0.22 nM
Molecule: CC1=CC(=O)N(O)CCCC(NC(=O)CCN2C(=O)CC(SCCOCCOCCOCCOCCC(=O)NCCCC[C@@H]3NC(=O)[C@@H](Cc4ccccc4)NC(=O)[C@H](CC(=O)O)NC(=O)CNC(=O)[C@H](CCCNC(=N)N)NC3=O)C2=O)C(=O)OCCC(C)=CC(=O)N(O)CCCC(NC(=O)CCN2C(=O)CC(SCCOCCOCCOCCOCCC(=O)NCCCC[C@@H]3NC(=O)[C@@H](Cc4ccccc4)NC(=O)[C@H](CC(=O)O)NC(=O)CNC(=O)[C@H](CCCNC(=N)N)NC3=O)C2=O)C(=O)OCCC(C)=CC(=O)N(O)CCCC(NC(=O)CCCCC[N+]2=C(C=CC3=CC(=CC=C4N(C)c5ccc(S(=O)(=O)O)cc5C4(C)C)CCC3)C(C)(C)c3cc(S(=O)(=O)[O-])ccc32)C(=O)OCC1 (stereo partly drawn) [Sulfo-Cy7-FSC-RGD, Sulfo-Cyanine7-FSC-(mal-c(RGDfK)-(PEG4))2]
Fluorescence-determined cell uptake [5]: 1.74 ± 0.25%
time of best contrast in fluorescence imaging ([6]; after administration): 24 h
tumor retention in fluorescence imaging ([6]; two days after injection): completely washed out from tumor tissue
Fluorescence-determined cell uptake [7]: 5.79 ± 0.88%

Molecule: nonfluorescent divalent FSC-MG derivative: nonfluorescent divalent FSC-MG derivative, authors' unpublished data used for comparison (EAYGWMDF; Synthetic minigastrin analogue MG11, converted from the printed [D-Glu1,desGlu2-6]-Ala-Tyr-Gly-Trp-Met-Asp-Phe-NH2; Glu1 is D-Glu; C-terminal amide; Two peptides on one Fusarinine C chelator, no fluor)
IC50 [8]: 0.9 ± 0.2 nM
